Assay: Plasma pharmacokinetics on fraction day
Assay type: in vivo, human
Settings: plasma, patients given peposertib

Average exposure proportion compared with peposertib, AUC: < 25% | Average exposure proportion compared with peposertib, Cmax: < 16%
Structure (SMILES): Oc1ccc(C(O)c2cc(-c3ncnc4cc(N5CCOCC5)ccc34)c(F)cc2Cl)nn1 (centres unmarked) [M467]
